Patent US20260234150A1, “COMPOUND FOR INHIBITING NLRP3, PREPARATION METHOD, AND USE” (DOVETREE MEDICINES UNUS, INC., priority 2023, published 2026)

Key:
[1] = system: iodoacetic acid (MIA)-induced SD rat knee osteoarthritis model; test: Iodoacetic acid (MIA)-induced SD rat knee osteoarthritis model; format: in vivo, SD rats; settings: 30 mg/kg orally once a day from Day 7 to Day 42; compared with model blank control group; 21 days to 42 days after modeling
Protocol: Purpose: Evaluate the efficacy of MCC950 (Positive reference compound) and compound 111 of the present disclosure on iodoacetic acid (MIA)-induced SD rat knee osteoarthritis model.
Experimental materials: Experimental male SD rats, 4 weeks old.
Model induction began after the experimental animals were adapted to the animal environment for 7 days. Day 0, the rats were anesthetized, the hair around the left knee joint was removed, and the skin was disinfected. The left leg was flexed 90° to expose the patellar platform. The depression in the middle of the platform was touched by hand to find the femoral condyle, patella and ligament. The syringe needle was inserted from the bottom of the patella on both sides of the patellar ligament to the direction of the femoral condyle. When a clear sense of empty space was felt, 50 μL of iodoacetic acid solution was injected. Day 7 Grouping was performed according to the width of the knee joint on the induced side. The groups were: normal control group (healthy control without modeling, 5% DMSO+10% Solutol+85% Saline), model blank control group (5% DMSO+10% Solutol+85% Saline), MCC950 30 mg/kg, and compound 111 of the present disclosure 30 mg/kg. Starting from Day 7, the normal control group and the model blank control group were given the solvent (5% DMSO+10% Solutol+85% Saline) orally once a day, and the other groups were given the corresponding compounds orally once a day until the end of the administration on Day 42. The knee joint width and body weight of the rats were measured once on Day 7, 14, 21, 28, 35, and 42.

[2] = Liver microsome metabolic stability, human; format: in vitro ADME; settings: human liver microsomes, 45 min incubation
Protocol: (§1) Purpose: This experiment investigates the metabolic stability of the compound in liver microsomes of different species such as humans, mice and rats, and the residual content of the test compound after incubation with liver microsomes of different species such as humans, mice and rats.
(§2) Preparation of 500 μM solution of target compound and positive control: 5 μL of each 10 mM stock solution was taken, added to 95 μL acetonitrile, and mixed for 30 s;
(§3) Preparation of 6 mM NADPH solution: 100 mM Stock aliquot liquid was diluted with Mg-Mg —K-Buffer.
(§4) 2.1.1 Liver microsome solution: 18.75 μL of 20 mg/mL HLM, RLM, MLM, DLM, MOLM (final concentration: 0.5 mg/ml) were taken and placed them in each well of a 96-well plate;
(§5) 2.1.2 1.5 μL of 500 μM solution of each compound was added respectively;
(§6) 2.1.3 479.8 μL of phosphate buffer was taken, then added to each compound well, and mixed at 1000 rpm in an oscillating mixer for 10 s.
(§7) 30 μL of the above samples were taken and aliquoted to a new 96-well plates respectively (including NADPH group, n=2, and no NADPH group at 0 and 45 min, n=1), marked as 0, 5, 15, 30 and 45 min; […]
(§8) The slope was calculated based on the LN value of the compound concentration percentage and time as the coordinate axis, and the residual content of the compound after incubation with liver microsomes was calculated based on the slope and formula. […]

[3] = Liver microsome metabolic stability, mouse; format: in vitro ADME; settings: mouse liver microsomes, 45 min incubation
Protocol: as §1, §2, §3, §4, §5, §6, §7, §8

## CC(=O)N1CCOC[C@H]1CNc1nc2nc(-c3c(C)cc(C(F)(F)F)cc3O)ccc2o1 [Compound 111]
[1]
  widening of the knee joints (knee joint width): could significantly inhibit the widening of the knee joints
[2]
  LMS (h)(% rem, 45 min): 93.24 % rem
[3]
  LMS (m)(% rem, 45 min): 91.34 % rem
